pIC50: −log10 of the molar value.
How the values were obtained:
[1] = target: Receptor-interacting serine/threonine-protein kinase 2 (Homo sapiens, UniProt O43353); experiment: Inhibition of full-length FLAG-6His-TEV tagged human RIP2 expressed in Sf9 cells assessed as reduction in autophosphorylation pre-incubated for 30 mins followed by incubation with ATP for 2 hrs by ADP-Glo assay
[2] = target: T1, Dual serine/threonine and tyrosine protein kinase (Homo sapiens) (UniProt Q6XUX3); experiment: Inhibition of RIPK5 (unknown origin) at 10 uM after 120 mins P33 radiolabeled kinase activity assay
T1 sequence (whole entry): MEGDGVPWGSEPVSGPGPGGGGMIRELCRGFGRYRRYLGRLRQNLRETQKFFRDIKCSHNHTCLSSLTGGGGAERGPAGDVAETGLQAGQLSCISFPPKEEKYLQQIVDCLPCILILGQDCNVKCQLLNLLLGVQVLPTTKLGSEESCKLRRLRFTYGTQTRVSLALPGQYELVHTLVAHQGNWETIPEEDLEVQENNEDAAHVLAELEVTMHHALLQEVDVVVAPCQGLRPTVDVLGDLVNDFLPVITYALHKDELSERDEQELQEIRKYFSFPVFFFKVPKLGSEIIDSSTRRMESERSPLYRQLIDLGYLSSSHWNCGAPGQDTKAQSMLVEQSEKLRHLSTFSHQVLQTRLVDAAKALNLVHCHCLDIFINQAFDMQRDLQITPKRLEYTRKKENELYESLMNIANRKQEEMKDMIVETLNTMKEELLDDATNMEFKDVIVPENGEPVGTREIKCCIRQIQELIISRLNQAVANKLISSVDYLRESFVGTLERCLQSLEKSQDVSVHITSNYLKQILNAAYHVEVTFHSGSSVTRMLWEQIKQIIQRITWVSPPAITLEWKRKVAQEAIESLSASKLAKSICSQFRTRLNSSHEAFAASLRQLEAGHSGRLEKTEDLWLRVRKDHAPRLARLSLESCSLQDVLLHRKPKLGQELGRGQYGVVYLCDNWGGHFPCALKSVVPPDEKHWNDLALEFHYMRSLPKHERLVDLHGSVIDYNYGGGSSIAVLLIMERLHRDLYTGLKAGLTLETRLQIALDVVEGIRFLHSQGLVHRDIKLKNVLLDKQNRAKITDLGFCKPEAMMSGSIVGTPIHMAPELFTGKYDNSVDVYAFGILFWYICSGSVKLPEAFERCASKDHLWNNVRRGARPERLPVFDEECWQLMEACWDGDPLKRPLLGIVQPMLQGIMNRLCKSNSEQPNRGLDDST

[3] = target: Serine/threonine-protein kinase 33 (Homo sapiens) (UniProt Q9BYT3); experiment: Inhibition of STK33 (unknown origin) at 10 uM after 120 mins P33 radiolabeled kinase activity assay
[4] = target: Calcium/calmodulin-dependent protein kinase type 1D (Homo sapiens) (UniProt Q8IU85); experiment: Inhibition of CAMK1delta (unknown origin) at 10 uM after 120 mins P33 radiolabeled kinase activity assay
[5] = target: T2, Serine/threonine-protein kinase DCLK1 (Homo sapiens) (UniProt O15075); experiment: Inhibition of DCAMKL1 (unknown origin) at 10 uM after 120 mins P33 radiolabeled kinase activity assay
T2 sequence (whole entry): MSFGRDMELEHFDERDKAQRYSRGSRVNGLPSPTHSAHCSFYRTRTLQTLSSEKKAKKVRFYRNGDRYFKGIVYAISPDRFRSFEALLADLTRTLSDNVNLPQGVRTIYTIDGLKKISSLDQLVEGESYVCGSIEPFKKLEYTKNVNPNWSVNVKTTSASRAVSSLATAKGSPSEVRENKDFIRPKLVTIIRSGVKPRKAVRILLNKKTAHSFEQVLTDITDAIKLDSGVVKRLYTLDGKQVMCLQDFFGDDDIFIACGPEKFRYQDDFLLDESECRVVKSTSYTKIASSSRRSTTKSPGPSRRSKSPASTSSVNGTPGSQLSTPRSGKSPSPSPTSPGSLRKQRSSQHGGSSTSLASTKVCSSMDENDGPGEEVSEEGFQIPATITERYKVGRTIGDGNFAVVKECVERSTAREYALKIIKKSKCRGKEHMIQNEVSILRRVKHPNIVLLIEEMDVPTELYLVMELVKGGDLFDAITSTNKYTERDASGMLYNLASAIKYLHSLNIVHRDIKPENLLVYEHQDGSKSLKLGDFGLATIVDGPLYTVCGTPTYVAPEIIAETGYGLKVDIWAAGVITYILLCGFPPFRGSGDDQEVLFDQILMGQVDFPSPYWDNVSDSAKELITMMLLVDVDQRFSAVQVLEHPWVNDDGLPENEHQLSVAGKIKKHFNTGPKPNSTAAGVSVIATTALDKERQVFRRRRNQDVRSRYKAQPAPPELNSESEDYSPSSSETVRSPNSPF

[6] = target: Mitogen-activated protein kinase kinase kinase 1 (Homo sapiens) (UniProt Q13233); experiment: Inhibition of MEKK1 (unknown origin) at 10 uM after 120 mins P33 radiolabeled kinase activity assay
[7] = target: MAP kinase-activated protein kinase 2 (Homo sapiens) (UniProt P49137); experiment: Inhibition of MAPKAPK2 (unknown origin) at 10 uM after 120 mins P33 radiolabeled kinase activity assay
[8] = target: MAP kinase-activated protein kinase 3 (Homo sapiens) (UniProt Q16644); experiment: Inhibition of MAPKAPK3 (unknown origin) at 10 uM after 120 mins P33 radiolabeled kinase activity assay
[9] = target: Ephrin type-A receptor 4 (Homo sapiens) (UniProt P54764); experiment: Inhibition of EPHA4 (unknown origin) at 10 uM after 120 mins P33 radiolabeled kinase activity assay
[10] = target: Leukocyte tyrosine kinase receptor (Homo sapiens) (UniProt P29376); experiment: Inhibition of TYK1 (unknown origin) at 10 uM after 120 mins P33 radiolabeled kinase activity assay
Chain of Leukocyte tyrosine kinase receptor (Homo sapiens) (P29376 whole entry): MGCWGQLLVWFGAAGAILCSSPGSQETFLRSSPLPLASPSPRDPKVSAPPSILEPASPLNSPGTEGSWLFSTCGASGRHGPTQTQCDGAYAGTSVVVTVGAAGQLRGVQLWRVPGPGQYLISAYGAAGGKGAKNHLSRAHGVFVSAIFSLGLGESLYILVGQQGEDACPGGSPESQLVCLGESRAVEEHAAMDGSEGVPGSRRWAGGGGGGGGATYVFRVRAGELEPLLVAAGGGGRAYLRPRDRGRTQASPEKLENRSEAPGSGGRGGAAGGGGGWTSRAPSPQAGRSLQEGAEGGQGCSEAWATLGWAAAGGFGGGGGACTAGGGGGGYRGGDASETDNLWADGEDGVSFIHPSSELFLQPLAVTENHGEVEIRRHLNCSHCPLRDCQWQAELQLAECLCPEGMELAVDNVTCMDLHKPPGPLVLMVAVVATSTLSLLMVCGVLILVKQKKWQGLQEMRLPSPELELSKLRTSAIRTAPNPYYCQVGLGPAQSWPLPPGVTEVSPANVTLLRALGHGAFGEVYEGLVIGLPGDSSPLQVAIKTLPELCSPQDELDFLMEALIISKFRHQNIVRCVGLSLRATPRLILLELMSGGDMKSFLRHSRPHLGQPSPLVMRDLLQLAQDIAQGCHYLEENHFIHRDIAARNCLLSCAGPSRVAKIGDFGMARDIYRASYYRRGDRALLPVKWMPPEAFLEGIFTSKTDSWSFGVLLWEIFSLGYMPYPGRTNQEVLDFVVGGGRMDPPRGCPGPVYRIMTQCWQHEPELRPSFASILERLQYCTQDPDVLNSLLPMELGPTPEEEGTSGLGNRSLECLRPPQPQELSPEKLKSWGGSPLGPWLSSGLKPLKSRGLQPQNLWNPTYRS

Chain of MAP kinase-activated protein kinase 3 (Homo sapiens) (Q16644 whole entry, looked up): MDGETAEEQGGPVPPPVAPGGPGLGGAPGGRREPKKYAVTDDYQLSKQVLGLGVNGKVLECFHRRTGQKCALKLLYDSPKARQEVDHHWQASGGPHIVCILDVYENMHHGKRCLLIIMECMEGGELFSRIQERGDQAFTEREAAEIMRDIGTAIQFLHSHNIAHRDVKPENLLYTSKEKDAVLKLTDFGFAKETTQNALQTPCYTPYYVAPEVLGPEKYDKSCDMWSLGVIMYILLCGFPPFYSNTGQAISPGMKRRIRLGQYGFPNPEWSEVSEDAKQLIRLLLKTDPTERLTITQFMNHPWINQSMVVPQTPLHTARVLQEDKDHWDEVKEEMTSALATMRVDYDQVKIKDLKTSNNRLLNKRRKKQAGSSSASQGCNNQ
Chain of MAP kinase-activated protein kinase 2 (Homo sapiens) (P49137 whole entry, looked up): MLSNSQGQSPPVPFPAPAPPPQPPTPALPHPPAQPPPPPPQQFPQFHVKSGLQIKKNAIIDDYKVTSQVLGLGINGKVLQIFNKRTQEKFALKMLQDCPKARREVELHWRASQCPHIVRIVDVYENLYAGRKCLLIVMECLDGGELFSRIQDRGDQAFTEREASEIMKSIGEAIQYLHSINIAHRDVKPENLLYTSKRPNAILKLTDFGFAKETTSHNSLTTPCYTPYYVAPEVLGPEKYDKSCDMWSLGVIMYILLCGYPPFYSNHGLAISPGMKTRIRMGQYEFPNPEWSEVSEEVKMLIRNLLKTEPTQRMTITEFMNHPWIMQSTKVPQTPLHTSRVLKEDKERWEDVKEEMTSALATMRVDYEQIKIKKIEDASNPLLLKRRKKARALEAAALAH
Chain of Calcium/calmodulin-dependent protein kinase type 1D (Homo sapiens) (Q8IU85 whole entry, looked up): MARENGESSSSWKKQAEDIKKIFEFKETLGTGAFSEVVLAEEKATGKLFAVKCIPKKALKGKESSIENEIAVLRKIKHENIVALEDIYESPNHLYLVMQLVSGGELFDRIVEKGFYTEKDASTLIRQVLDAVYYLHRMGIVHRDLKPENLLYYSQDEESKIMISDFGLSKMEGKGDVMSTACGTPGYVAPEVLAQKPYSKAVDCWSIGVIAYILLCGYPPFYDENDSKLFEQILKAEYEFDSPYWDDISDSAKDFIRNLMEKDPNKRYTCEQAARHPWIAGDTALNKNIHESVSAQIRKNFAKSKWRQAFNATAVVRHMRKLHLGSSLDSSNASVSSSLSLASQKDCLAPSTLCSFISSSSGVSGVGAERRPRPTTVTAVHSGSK
Chain of Mitogen-activated protein kinase kinase kinase 1 (Homo sapiens) (Q13233 whole entry): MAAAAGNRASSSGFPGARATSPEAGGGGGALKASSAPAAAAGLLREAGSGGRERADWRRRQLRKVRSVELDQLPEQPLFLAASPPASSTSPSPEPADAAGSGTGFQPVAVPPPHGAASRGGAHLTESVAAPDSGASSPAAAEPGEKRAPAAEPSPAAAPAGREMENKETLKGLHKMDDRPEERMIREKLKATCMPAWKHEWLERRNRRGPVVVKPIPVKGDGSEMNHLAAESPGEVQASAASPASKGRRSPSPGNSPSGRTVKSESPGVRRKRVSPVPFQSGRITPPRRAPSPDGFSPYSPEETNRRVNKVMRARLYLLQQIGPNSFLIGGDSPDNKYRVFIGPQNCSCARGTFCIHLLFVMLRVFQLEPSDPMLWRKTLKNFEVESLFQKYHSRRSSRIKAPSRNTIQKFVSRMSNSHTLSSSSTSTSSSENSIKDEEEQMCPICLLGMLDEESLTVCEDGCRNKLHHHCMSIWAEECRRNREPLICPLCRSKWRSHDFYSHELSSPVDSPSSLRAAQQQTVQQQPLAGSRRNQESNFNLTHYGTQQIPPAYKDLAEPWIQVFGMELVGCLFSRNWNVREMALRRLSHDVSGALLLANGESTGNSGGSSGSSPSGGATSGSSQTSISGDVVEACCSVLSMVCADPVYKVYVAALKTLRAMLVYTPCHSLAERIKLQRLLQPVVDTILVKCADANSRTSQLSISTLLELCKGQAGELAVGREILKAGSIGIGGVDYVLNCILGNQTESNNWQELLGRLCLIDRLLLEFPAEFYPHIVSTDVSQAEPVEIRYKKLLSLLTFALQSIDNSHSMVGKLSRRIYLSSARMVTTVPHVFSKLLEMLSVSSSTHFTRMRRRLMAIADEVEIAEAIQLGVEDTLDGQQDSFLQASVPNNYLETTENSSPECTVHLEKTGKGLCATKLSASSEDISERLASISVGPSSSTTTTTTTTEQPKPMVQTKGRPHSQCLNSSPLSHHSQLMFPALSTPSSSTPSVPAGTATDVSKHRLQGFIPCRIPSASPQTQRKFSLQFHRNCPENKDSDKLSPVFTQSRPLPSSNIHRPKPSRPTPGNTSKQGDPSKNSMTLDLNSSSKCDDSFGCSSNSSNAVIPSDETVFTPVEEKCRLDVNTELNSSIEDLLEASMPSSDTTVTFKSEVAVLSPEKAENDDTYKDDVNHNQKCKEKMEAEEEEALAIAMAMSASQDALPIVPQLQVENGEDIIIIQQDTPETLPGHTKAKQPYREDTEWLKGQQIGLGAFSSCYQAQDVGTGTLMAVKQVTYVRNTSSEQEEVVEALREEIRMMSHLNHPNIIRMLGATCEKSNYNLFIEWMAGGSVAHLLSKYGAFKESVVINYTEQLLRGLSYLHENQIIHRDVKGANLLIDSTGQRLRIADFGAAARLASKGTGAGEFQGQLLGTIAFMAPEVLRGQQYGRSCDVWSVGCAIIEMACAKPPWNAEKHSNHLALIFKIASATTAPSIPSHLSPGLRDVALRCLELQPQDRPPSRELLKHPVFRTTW
Chain of Ephrin type-A receptor 4 (Homo sapiens) (P54764 whole entry): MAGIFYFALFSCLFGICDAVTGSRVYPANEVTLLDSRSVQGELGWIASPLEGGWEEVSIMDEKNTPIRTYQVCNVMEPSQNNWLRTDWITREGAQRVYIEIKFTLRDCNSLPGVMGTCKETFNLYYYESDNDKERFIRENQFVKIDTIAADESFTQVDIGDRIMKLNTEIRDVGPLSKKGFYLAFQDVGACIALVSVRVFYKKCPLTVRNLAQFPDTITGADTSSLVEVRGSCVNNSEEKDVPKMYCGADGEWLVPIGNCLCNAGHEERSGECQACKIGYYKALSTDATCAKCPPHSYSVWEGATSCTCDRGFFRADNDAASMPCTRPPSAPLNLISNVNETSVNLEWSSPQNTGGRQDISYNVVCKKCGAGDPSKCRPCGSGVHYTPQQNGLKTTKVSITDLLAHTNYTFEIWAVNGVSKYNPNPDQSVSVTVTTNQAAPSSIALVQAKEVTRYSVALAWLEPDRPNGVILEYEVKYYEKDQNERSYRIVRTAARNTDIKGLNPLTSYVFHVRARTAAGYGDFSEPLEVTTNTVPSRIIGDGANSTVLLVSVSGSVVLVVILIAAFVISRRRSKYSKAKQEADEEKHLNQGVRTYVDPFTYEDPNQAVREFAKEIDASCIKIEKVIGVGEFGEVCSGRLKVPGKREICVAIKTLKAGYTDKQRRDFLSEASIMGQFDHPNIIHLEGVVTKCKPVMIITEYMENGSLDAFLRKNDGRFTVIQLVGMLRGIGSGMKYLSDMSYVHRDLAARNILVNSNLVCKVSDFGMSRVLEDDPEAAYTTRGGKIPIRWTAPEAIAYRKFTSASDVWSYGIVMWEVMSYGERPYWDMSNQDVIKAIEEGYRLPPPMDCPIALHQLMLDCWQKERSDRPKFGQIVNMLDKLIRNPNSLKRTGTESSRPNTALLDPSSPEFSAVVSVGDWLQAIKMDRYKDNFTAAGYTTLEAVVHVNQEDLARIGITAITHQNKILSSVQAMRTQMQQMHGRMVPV
Chain of Serine/threonine-protein kinase 33 (Homo sapiens) (Q9BYT3 whole entry, looked up): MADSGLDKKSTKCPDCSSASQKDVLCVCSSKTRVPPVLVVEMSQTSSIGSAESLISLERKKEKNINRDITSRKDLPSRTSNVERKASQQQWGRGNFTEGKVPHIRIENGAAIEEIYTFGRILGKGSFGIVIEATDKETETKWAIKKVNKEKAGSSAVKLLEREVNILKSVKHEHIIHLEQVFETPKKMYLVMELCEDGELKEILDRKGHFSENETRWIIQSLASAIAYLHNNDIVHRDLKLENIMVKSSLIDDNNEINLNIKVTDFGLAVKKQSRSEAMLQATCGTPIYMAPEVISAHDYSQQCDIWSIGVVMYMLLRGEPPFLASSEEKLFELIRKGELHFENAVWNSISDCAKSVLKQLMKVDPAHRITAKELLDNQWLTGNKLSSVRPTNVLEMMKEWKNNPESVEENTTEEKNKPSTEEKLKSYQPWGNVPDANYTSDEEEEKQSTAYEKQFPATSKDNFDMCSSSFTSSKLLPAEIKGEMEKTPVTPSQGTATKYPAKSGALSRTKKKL

pIC50 [1] | inhibition [2] [%] | inhibition [3] [%] | inhibition [4] [%] | inhibition [5] [%] | inhibition [6] [%] | inhibition [7] [%] | inhibition [8] [%] | inhibition [9] [%] | inhibition [10] [%] | Structure (SMILES)
8.20 | 25 | 29.3 | 76.3 | 8.06 | -3 | 10.7 | -3.69 | 70.5 | 7.78 | CS(=O)(=O)c1cccc(Nc2nccc(-c3sc(N4CCOCC4)nc3-c3cccc(NS(=O)(=O)c4c(F)cccc4F)c3)n2)c1
7.92 | -4.89 | 10.6 | 3.59 | 4.11 | -3.24 | 11.5 | 0.16 | 14.3 | 4.59 | COCCNC(=O)c1ccc2c(c1)nc(-c1cnc(-c3ccc(Cl)cc3)[nH]1)n2CCOC
7.20 | -0.31 | 36.7 | 8.06 | 2.97 | 25.2 | 11 | -4.91 | 97 | 35.5 | CC(C)(C)c1cc(NC(=O)Nc2ccc(Oc3ccncc3)cc2)no1
